{"source": "paper PMC4177084", "about": "(Journal of Thyroid Research, 2014)", "key": {"FLT4/VEGFR3": {"target": "T1, FLT4/VEGFR3 (Homo sapiens, UniProt P35916)", "T1 construct": "purchased Carna Biosciences, Inc. (Kobe, Japan)", "T1 sequence (P35916 25-1363)": "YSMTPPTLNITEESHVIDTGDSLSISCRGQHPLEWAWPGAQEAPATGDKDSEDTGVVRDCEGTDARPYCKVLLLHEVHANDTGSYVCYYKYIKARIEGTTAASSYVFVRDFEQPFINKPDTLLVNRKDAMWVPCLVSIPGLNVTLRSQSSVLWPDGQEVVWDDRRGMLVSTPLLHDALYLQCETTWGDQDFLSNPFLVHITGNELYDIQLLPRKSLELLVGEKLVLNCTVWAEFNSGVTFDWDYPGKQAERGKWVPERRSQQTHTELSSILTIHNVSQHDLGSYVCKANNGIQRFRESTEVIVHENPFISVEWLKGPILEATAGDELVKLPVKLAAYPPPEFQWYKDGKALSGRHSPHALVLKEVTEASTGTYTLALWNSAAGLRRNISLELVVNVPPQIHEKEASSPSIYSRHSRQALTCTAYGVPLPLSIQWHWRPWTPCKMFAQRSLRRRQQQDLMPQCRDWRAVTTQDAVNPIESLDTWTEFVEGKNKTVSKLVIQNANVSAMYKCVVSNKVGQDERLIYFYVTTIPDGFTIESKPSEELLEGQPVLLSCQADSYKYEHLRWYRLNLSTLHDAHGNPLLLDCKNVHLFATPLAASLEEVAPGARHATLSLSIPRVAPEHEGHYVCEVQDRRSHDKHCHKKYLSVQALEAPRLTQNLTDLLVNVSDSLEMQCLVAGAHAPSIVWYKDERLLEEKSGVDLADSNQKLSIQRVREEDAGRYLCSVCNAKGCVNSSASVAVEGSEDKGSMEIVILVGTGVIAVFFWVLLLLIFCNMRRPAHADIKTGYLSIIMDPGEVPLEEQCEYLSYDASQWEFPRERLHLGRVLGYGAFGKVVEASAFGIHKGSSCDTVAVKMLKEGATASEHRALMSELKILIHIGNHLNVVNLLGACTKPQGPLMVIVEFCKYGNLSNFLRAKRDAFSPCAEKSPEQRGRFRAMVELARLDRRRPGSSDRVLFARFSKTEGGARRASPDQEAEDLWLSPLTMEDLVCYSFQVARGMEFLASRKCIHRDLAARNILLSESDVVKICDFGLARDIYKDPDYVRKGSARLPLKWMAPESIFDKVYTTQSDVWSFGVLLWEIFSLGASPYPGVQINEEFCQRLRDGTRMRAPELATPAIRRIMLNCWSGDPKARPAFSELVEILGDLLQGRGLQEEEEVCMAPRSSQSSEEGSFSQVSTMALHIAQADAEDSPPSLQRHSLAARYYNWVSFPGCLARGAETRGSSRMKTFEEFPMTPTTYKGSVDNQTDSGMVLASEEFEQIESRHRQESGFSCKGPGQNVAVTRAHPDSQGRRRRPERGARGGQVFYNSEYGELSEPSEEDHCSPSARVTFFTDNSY", "test": "Cell free kinase inhibition assay", "type": "biochemical"}, "TIE2": {"target": "T2, TIE2 (Homo sapiens, UniProt Q02763)", "T2 construct": "purchased Carna Biosciences, Inc. (Kobe, Japan)", "T2 sequence (Q02763 23-1124)": "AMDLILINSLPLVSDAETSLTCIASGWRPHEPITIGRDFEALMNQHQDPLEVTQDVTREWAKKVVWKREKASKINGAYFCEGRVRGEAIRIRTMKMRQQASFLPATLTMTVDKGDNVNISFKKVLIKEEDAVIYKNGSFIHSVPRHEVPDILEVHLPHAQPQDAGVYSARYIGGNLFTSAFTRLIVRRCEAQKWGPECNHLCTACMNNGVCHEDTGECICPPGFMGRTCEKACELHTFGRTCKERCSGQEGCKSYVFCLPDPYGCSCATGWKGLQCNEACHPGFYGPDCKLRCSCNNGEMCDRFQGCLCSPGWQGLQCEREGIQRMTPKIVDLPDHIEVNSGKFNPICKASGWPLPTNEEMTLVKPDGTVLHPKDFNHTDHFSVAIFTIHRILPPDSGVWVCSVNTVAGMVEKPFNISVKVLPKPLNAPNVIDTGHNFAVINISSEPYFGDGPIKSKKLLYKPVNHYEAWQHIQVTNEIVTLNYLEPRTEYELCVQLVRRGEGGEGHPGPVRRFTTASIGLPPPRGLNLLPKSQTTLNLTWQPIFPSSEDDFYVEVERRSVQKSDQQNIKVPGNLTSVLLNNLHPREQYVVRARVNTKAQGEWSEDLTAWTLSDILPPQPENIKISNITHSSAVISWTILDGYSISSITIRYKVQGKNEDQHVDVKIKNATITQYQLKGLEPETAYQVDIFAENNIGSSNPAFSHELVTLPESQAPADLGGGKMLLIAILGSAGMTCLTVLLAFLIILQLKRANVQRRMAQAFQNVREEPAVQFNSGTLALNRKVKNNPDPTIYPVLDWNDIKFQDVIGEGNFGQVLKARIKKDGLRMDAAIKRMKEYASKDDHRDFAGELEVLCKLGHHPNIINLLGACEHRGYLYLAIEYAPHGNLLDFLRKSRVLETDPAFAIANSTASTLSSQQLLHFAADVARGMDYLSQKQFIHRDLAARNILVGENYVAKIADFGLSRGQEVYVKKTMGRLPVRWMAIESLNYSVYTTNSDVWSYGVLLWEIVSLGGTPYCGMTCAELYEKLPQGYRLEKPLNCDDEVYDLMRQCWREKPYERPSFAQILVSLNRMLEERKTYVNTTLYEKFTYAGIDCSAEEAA", "test": "Cell free kinase inhibition assay", "type": "biochemical"}}}
{"compound": "COc1cc2nccc(Oc3ccc(NC(=O)NC4CC4)c(Cl)c3)c2cc1C(N)=O", "note": "[Lenvatinib, Lenvatinib mesilate]", "values": [{"measurement": "IC50", "setting": "FLT4/VEGFR3", "value": 0.0023, "unit": "µM"}, {"measurement": "IC50", "setting": "TIE2", "value": 2.5, "unit": "µM"}]}
